Tests used:
[1] = acute hypercalcemic action (serum-calcium) in rats; type: in vivo, rat; settings: dose ratio test substance/calcitriol for comparable hypercalcemic action; one-time subcutaneous administration, male rats
Protocol: To determine the acute hypercalcemic action of various calcitriol derivatives, the test that is described below is carried out:
The action of control (solution base), reference substance (1,25-dihydroxy vitamin D3=calcitriol) and test substance is tested in each case after one-time subcutaneous administration in groups of 10 healthy male rats (140–170 g). During the testing time, the rats are kept in special cages to determine the excretion of water and mineral substances. Urine is collected in 2 fractions (0–16 hours and 16–22 hours). An oral dose of calcium (0.1 mmol of calcium in 6.5% alpha-hydroxypropylcellulose, 5 ml/animal) replaces at 1600 hours the calcium intake that is lacking by food deprivation. At the end of the test, the animals are killed by decapitation and exsanguinated to determine the serum-calcium values. For the primary screen test in vivo, an individual standard dose (200 μg/kg) is tested. For selected substances, the result is supported by establishing a dose-effect relation.
A hypercalcemic action is shown in serum-calcium level values that are higher than in the control.
The significance of differences between substance groups and controls and between test substance and reference substance are supported with suitable statistical processes.

[2] = metabolic stability in liver homogenate; type: in vitro ADME; settings: half-life in the liver homogenate (rat); for half-life: read-out: T½
Protocol: To determine the metabolic stability, the test substance is incubated with tissue homogenate (from the rat liver) in the presence of buffer systems. The drop in starting concentration is tracked as a function of time. After a certain time, the incubation is stopped, and the unaltered test substance is extracted from the homogenate (diethyl ether), concentrated by evaporation under nitrogen, isolated via HPLC (mobile solvent: acetonitrile/water) and detected using UV-absorption.

HL 60 cells = test: differentiation induction of HL 60 cells to macrophages (NBT reduction); type: cell-based, human; settings: dose ratio test substance/calcitriol for comparable semi-maximum differentiation induction; 96 hours incubation
Protocol: The differentiation-stimulating action of calcitriol analogues is also detected quantitatively.
It is known in the literature [Mangelsdorf, D. J. et al., J. Cell. Biol. 98: 391 (1984)] that the treatment of human leukemia cells (promyelocyte cell line HL 60) in vitro with calcitriol induces the differentiation of cells to macrophages.
HL 60 cells are cultivated in tissue culture medium (RPMI 10% fetal calf serum) at 37° C. in an atmosphere of 5% CO2 in air.
For substance testing, the cells are centrifuged off, and 2.0×10^5 cells/ml in phenol red-free tissue culture medium is taken up. The test substances are dissolved in ethanol and diluted with tissue culture medium without phenol red to the desired concentration. The dilution stages are mixed with the cell suspension at a ratio of 1:10, and 100 μl each of this cell suspension that is mixed with substance is pipetted into an indentation of a 96-hole plate. For control, a cell suspension is mixed analogously with the solvent.
After incubation for 96 hours at 37° C. in 5% CO2 in air, 100 μl of an NBT-TPA solution (nitro blue tetrazolium (NBT), final concentration in the batch of 1 mg/ml, tetradecanoyl phorbolmyristate-13-acetate (TPA), final concentration in the batch of 2×10^−7 mol/l) is pipetted into each indentation of the 96-hole plate in the cell suspension.
By incubation for 2 hours at 37° C. and 5% CO2 in air, NBT is reduced to insoluble formazan because of the intracellular oxygen radical release, stimulated by TPA, in the cells that are differentiated to macrophages.
To complete the reaction, the indentations of the 96-hole plate are suctioned off, and the cells are affixed to the bottom of the plate by adding methanol and dried after affixing. To dissolve the intracellular formazan crystals that are formed, 100 μl of potassium hydroxide (2 mol/l) and 100 μl of dimethyl sulfoxide are pipetted into each indentation and ultrasonically treated for 1 minute. The concentration of formazan is measured by spectrophotometry at 650 nm.
As a yardstick for the differentiation induction of HL 60 cells to macrophages, the concentration of formed formazan applies.

calcitriol receptor = molecular target: T1, calcitriol receptor (Sus scrofa, UniProt A3RGC1); test: calcitriol-receptor test (competition with 3H-calcitriol); settings: competition factor = concentration of test substance / concentration of calcitriol at 50% competition; protein extract from intestines of juvenile pigs
T1 sequence (A3RGC1 1-427): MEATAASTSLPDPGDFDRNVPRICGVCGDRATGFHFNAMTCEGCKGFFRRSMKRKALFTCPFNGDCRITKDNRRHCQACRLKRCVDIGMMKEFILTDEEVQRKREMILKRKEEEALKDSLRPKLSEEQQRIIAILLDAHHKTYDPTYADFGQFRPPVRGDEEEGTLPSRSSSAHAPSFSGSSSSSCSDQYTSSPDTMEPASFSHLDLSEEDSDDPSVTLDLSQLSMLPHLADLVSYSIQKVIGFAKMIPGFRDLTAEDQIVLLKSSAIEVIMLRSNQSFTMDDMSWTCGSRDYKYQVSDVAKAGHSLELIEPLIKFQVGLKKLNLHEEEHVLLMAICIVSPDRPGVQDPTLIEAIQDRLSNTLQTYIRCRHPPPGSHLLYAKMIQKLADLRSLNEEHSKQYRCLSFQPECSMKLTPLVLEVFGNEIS
Protocol: The vitamin D activity of the substances according to the invention is determined with the aid of the calcitriol-receptor test. It is carried out using a protein extract from the intestines of juvenile pigs.
Then, the samples are centrifuged at 10,000 g for 5 minutes at 4° C. The supernatant is decanted and measured in a β-counter after 1 hour of equilibration in Picofluor 15™.
The competition curves that are obtained at various concentrations of test substance as well as of reference substance (unlabeled calcitriol) at constant concentration of the reference substance (^3H-calcitriol) are placed in relation to one another, and a competition factor (KF) is determined.
It is defined as a quotient of the concentrations of the respective test substance and the reference substance, which are necessary for 50% competition:

C=C1/C(=C\C=C2/CCC[C@]3(C)[C@@H]([C@H](C)/C=C/[C@@H](O)C4(CCCCCCC)CC4)CC[C@@H]23)C[C@@H](O)C[C@@H]1O [Compound 236b, (5Z,7E,22E)-(1S,3R,24R)-25-heptyl-26,27-cyclo-9,10-secocholesta-5,7,10(19),22-tetraene-1,3,24-triol]
DR Ca [1]: >>30
T½ [2]: 1.67 h
DR HL 60 (HL 60 cells): 4
KF (calcitriol receptor): 20

C=C1/C(=C\C=C2/CCC[C@]3(C)[C@@H]([C@H](C)/C=C/[C@@H](O)C4(CC)CC4)CC[C@@H]23)C[C@@H](O)C[C@@H]1O [Compound 214b, (5Z,7E,22E)-(1S,3R,24R)-25-ethyl-26,27-cyclo-9,10-secocholesta-5,7,10(19),22-tetraene-1,3,24-triol]
DR Ca [1]: >1
T½ [2]: 1.67 h
DR HL 60 (HL 60 cells): 0.1
KF (calcitriol receptor): 1

C=C1/C(=C\C=C2/CCC[C@]3(C)[C@@H]([C@H](C)/C=C/[C@@H](O)C4(CCCCCC)CC4)CC[C@@H]23)C[C@@H](O)C[C@@H]1O [Compound 231b, (5Z,7E,22E)-(1S,3R,24R)-25-hexyl-26,27-cyclo-9,10-secocholesta-5,7,10(19),22-tetraene-1,3,24-triol]
DR Ca [1]: >100
T½ [2]: 1.25 h
DR HL 60 (HL 60 cells): 2
KF (calcitriol receptor): 9

C=C1/C(=C\C=C2/CCC[C@]3(C)[C@@H]([C@H](C)/C=C/[C@@H](O)C4CC4)CC[C@@H]23)C[C@@H](O)C[C@@H]1O [calcipotriol, (5Z,7E,22E)-(1S,3R,24S)-26,27-Cyclo-9,10-secocholesta-5,7,10(19),22-tetraene-1,3,24-triol, reference compound]
DR Ca [1]: 50
half-life [2]: 0.667 h
DR HL 60 (HL 60 cells): 1
KF (calcitriol receptor): 1

C=C1/C(=C\C=C2/CCC[C@]3(C)[C@@H]([C@H](C)/C=C/[C@@H](O)CCC4(C(=O)CCCC)CC4)CC[C@@H]23)C[C@@H](O)C[C@@H]1O [Compound 182b, (5Z,7E,22E)-(1S,3R,24S)-25-(1-oxopentyl)-26,27-cyclo-24a,24b-dihomo-9,10-secocholesta-5,7,10(19) ,22-tetraene-1,3,24-triol]
DR Ca [1]: >100
T½ [2]: 1.67 h
DR HL 60 (HL 60 cells): 18
KF (calcitriol receptor): 2

C=C1/C(=C\C=C2/CCC[C@]3(C)[C@@H]([C@H](C)/C=C/CC4(C(=O)CCCC)CC4)CC[C@@H]23)C[C@@H](O)C[C@@H]1O [Compound 76, (5Z,7E,22E)-(1S,3R)-25-(1-Oxopentyl)-26,27-cyclo-9,10-secocholesta-5,7,10(19),22-tetraene-1,3-diol]
DR Ca [1]: >100
T½ [2]: >2 h
DR HL 60 (HL 60 cells): 19
KF (calcitriol receptor): 7

C=C1/C(=C\C=C2/CCC[C@]3(C)[C@@H]([C@H](C)/C=C/[C@H](O)C4(CCCC)CC4)CC[C@@H]23)C[C@@H](O)C[C@@H]1O [Compound 226a, (5Z,7E,22E)-(1S,3R,24S)-25-Butyl-26,27-cyclo-9,10-secocholesta-5,7,10(19),22-tetraene-1,3,24-triol]
DR Ca [1]: >>1
T½ [2]: 1.33 h
DR HL 60 (HL 60 cells): 2
KF (calcitriol receptor): 4

[5Z,7E,22E,25(Z)]-(1S,3R,24S)-25-(1-octenyl)-26,27-cyclo-9,10-secocholesta-5,7,10(19),22-tetraene-1,3,24-triol [Compound 246b]
DR Ca [1]: >>10
T½ [2]: 1.67 h
DR HL 60 (HL 60 cells): 2
KF (calcitriol receptor): 10

C=C1C(=CC=C2CCCC3(C)C2CCC3C(C)C=CCCC2(C(=O)CCC)CC2)CC(O)CC1O [Compound 131, (5Z,7E,22E)-(1S,3R)-25-(1-oxobutyl)-26,27-cyclo-24a-homo-9,10-secocholesta-5,7,10(19) ,22-tetraene-1,3-diol]
DR Ca [1]: 30
T½ [2]: 2 h
DR HL 60 (HL 60 cells): 0.2
KF (calcitriol receptor): 10

C=C1C(=CC=C2CCCC3(C)C2CCC3C(C)C(O)CCCC2(C(=O)CCC)CC2)CC(O)CC1O [Compound 132, (5Z,7E)-(1S,3R,22S)-25-(1-Oxobutyl)-26,27-cyclo-24a-homo-9,10-secocholesta-5,7,10(19)-triene-1,3,22-triol]
DR Ca [1]: >100
T½ [2]: 1.67 h
DR HL 60 (HL 60 cells): 2
KF (calcitriol receptor): 20

C=C1/C(=C\C=C2/CCC[C@]3(C)[C@@H]([C@H](C)/C=C/CC4(C(=O)CCC)CC4)CC[C@@H]23)C[C@@H](O)C[C@@H]1O [Compound 71, (5Z,7E,22E)-(1S,3R)-25-(1-Oxobutyl)-26,27-cyclo-9,10-secocholesta-5,7,10(19),22-tetraene-1,3-diol]
DR Ca [1]: 100
T½ [2]: 2 h
DR HL 60 (HL 60 cells): 1.7
KF (calcitriol receptor): 9

C=C1/C(=C\C=C2/CCC[C@]3(C)[C@@H]([C@H](C)/C=C/[C@H](O)C4(CC)CC4)CC[C@@H]23)C[C@@H](O)C[C@@H]1O [Compound 214a, (5Z,7E,22E)-(1S,3R,24S)-25-Ethyl-26,27-cyclo-9,10-secocholesta-5,7,10(19),22-tetraene-1,3,24-triol]
DR Ca [1]: >>1
T½ [2]: 1.33 h
DR HL 60 (HL 60 cells): 1.5
KF (calcitriol receptor): 3

C=C1/C(=C\C=C2/CCC[C@]3(C)[C@@H]([C@H](C)[C@@H](O)CCCC4(C(C)=O)CC4)CC[C@@H]23)C[C@@H](O)C[C@@H]1O [Compound 127, (5Z,7E)-(1S,3R,22S)-25-Acetyl-26,27-cyclo-24a-homo-9,10-secocholesta-5,7,10(19)-triene-1,3,22-triol]
DR Ca [1]: >100
T½ [2]: 2 h
DR HL 60 (HL 60 cells): 4
KF (calcitriol receptor): 30

C=C1C(=CC=C2CCCC3(C)C2CCC3C(C)C=CCCC2(C(=O)CCCC)CC2)CC(O)CC1O [Compound 136, (5Z,7E,22E)-(1S,3R)-25-(1-Oxopentyl)-26,27-cyclo-24a-homo-9,10-secocholesta-5,7,10(19),22-tetraene-1,3-diol]
DR Ca [1]: >100
T½ [2]: >2 h
DR HL 60 (HL 60 cells): 17
KF (calcitriol receptor): 10

C=C1/C(=C\C=C2/CCC[C@]3(C)[C@@H]([C@H](C)CCCC(C)(C)O)CC[C@@H]23)C[C@@H](O)C[C@@H]1O [calcitriol, 1α,25-dihydroxy vitamin D3, reference compound]
DR Ca [1]: 1
half-life [2]: 2 h
DR HL 60 (HL 60 cells): 1
